According to patent publication US9975944B2, “Synthetic peptides for the treatment of autoimmune diseases” (TEL HASHOMER MEDICAL RESEARCH INFRASTRUCTURE AND SERVICES …, priority 2013, dated 2018):

Columns and labels:
T cells = T cells apoptosis in PBMC of RA patients, annexin V/PI FACS; format: cell-based, human; details: 24 hours, gated on PI negative cells, compared with matched non-citrullinated peptide
Description: To assess the ability of the citrullinated peptides to affect T cells apoptosis, peripheral blood mononuclear cells of rheumatoid arthritis patients were cultured in the presence of citrullinated, non-citrullinated peptides and Infliximab for 24 hours. Cells were double-stained for annexin V-fluorescein isothiocyanate (FITC) and PI-PE (apoptosis/necrosis markers) and analyzed by FACS. The results in FIG. 8 are presented after gating for PI negative cells (live cells). The β-Fib-Cit and Cit-ME (FIGS. 8A and 8B, respectively) induced T cells apoptosis (by 20% and 18%, respectively) as compared with the non-citrullinated peptides Non-Cit-β-Fib (FIG. 8D) and Non-Cit-ME (FIG. 8E). Infliximab induced apoptosis by 28% (FIG. 8C) as compared with the medium control (FIG. 8F).

IL-17 = IL-17 mRNA expression in the spleen of AIA rats, RT-PCR; format: in vivo, rat; details: spleens of AIA rats, 8 rats per treatment, compared to control
Description: To validate the effect of the peptides on CD4^+IL-17^+ populations as determined by FACS, the expression of IL-17 in the spleen was evaluated using RT-PCR. cDNA was extracted from the spleens of 8 rats per treatment (including control), and gene expression of IL-17 was assessed using the following RT-PCR primers: forward 5′-TGGCGGTTCTCCTTCAGTC-3′ (SEQ ID NO: 17) and reverse 5′-[…]-3′ (SEQ ID NO: 18). […] Thus, the RT-PCR data was in line with the FACS analyses.

anti cit-collagen ACPA = assay: Peptide inhibition assay in ELISA, plates coated with cit-collagen; design: species or system human; details: sera of ACPA-positive RA patients diluted to about 50% binding OD, 2 h preincubation at room temperature
Description: (§1) Peptide inhibition assay in ELISA was used to confirm the cross-reactivity of the Cit-ME peptide to the following anti-citrullinated protein antibodies (ACPA): anti citrullinated filaggrin, anti cit-β-fibrinogen, anti cit-collagen and anti cit-vimentin. Sera were obtained from ACPA RA patients and samples with highly positive ACPA levels were selected (≥100 U/ml) using commercial CCP ELISA test (INOVA). ELISA test was performed with each of the citrullinated peptides: cit-filaggrin (HQCHQESTCitGRSRGRCGRSGS) set forth in SEQ ID NO: 3, cit-β-fibrinogen (CitPAPPPISGGGYCitACit) set forth in SEQ ID NO: 2, cit-collagen (ACitGLTGCitPGDAK) set forth in SEQ ID NO: 21 and cit-vimentin (SAVRACitSSVPGVRK) set forth in SEQ ID NO: 22. Sera were diluted in PBS to obtain a reactivity of approximately 50% binding OD under standard assay conditions. Increasing concentrations of Cit-ME peptide were added to the diluted sera and incubated for two hours at room temperature. Specimens were then assayed in ELISA plates coated with each one of the peptides. […] Thus, ACPA have binding specificity to Cit-ME.

IFN-γ = IFN-γ gene expression in mononuclear cells derived from synovial fluid of RA patients, real-time PCR; format: cell-based, human; details: 24 h, compared to the non-citrullinated peptides
Description: (§2) To assess the effect of the Cit-ME peptide (SEQ ID NO: 1) on inflammatory related genes expression, peripheral blood mononuclear cells derived from synovial fluid rheumatoid arthritis patients were incubated with the Cit-ME multi-epitope citrullinated peptide for 24 h. The effect of the peptide on gene expression was compared also to the effect of infliximab, a TNF-α blocker, which is an antirheumatic drug that acts as an anti-inflammatory compound. […] Results were determined by real-time PCR.

[1] = system: anti citrullinated filaggrin ACPA; assay: Peptide inhibition assay in ELISA, plates coated with cit-filaggrin; design: species or system human; details: sera of ACPA-positive RA patients diluted to about 50% binding OD, 2 h preincubation at room temperature
Description: as §1

[2] = system: anti cit-β-fibrinogen ACPA; assay: Peptide inhibition assay in ELISA, plates coated with cit-β-fibrinogen; design: species or system human; details: sera of ACPA-positive RA patients diluted to about 50% binding OD, 2 h preincubation at room temperature
Description: as §1

[3] = system: T cells derived from the spleen; assay: Apoptosis of T cells from the spleen of AIA rats, Annexin V/PI staining; format: in vivo, rat; details: gated for PI and CD4+, two independent experiments, control 13±1%
Description: To assess apoptosis of T cells derived from the spleen of treated rats, the Annexin V/PI staining method was preformed. FIGS. 14A-14C are representative histograms of cells treated with Cit-Me (FIG. 14A), non-Cit-Me (FIG. 14B) or untreated (FIG. 14C). The histograms present apoptosis measured by Annexin V^+. First, cells were gated for PI and CD4^+ and next analyzed for percentage of Annexin-V positive cells. […] A significant increase (p<0.01) in the mean apoptotic rate was determined in cells from the spleen of Cit-ME treated rats (19.5±1.8%) in comparison with Non-Cit-ME or control (13.8±1.3% and 13±1%, respectively).

CD4+CD25+Foxp3+ T cells = assay: Regulatory T cell proportion in PBMC of RA patients, FACS; format: cell-based, human; details: 1.25 μg/ml peptide, 48 hours, compared with non-citrullinated matched peptide
Description: Given the observed immunomodulation of cytokines following incubation of peripheral blood mononuclear cells obtained from rheumatoid arthritis patients with citrullinated peptides, the citrullinated peptides were tested for their ability to exert an effect on the T regulatory population proportion. Peripheral blood mononuclear cells of rheumatoid arthritis patients were cultured in the presence of 1.25 μg/ml of the peptides (Fil-Cit, β-Fib-Cit, and Cit-ME; FIGS. 6A, 6B and 6E, respectively, and Fil-NC, β-Fib-NC and Non-Cit-ME; FIGS. 6C, 6D and 6G, respectively), and Infliximab (FIG. 6F) for 48 hours. Cells cultured with medium devoid of the peptides and Infliximab served as control (FIG. 6H). Thereafter, cells were stained for the expression of CD4, CD25, and FoxP3 and analyzed by FACS. […] Mean percentage of CD4^+CD25^+Foxp3^+ T cells in the presence of Infliximab was increased by 14% as compared to medium (FIG. 6F and FIG. 6H, respectively). Thus, citrullinated peptides are able to induce the expansion of the T regulatory cell population.

AIA rats = assay: Histological signs of arthritis in ankle joints of AIA rats; format: in vivo, rat; details: day 28 post disease induction, H&E, untreated 1.75±0.41
Description: To evaluate the histological signs of arthritis, rats were sacrificed and ankle joints were collected on day 28 post disease induction. The joints were fixed immediately for 24 hours in 4% paraformaldehyde, then decalcified in rapid bone decalcifier (RDO; Apex Engineering, Plainfield, Ill., USA) for 6 hours at room temperature, and further fixed in 4% paraformaldehyde before embedding in paraffin. Sections (5 μm thick) were rehydrated in a graded ethanol series and stained with haematoxylin & eosin (H&E). FIGS. 11A to 11C show representative H&E stained joint tissue sections (magnification ×100). Arrowheads denote the infiltrated zones, scale bar=200 μm. The specimens were scored for severity of inflammation in the synovium, pannus formation, cartilage, and bone erosion. A close correlation between the clinical signs and the histopathological findings was found.

TGF-β = TGF-β gene expression in mononuclear cells derived from synovial fluid of RA patients, real-time PCR; format: cell-based, human; details: 24 h, compared to the non-citrullinated peptides
Description: as §2

Question: Which results are given for “VCitLCitSSVESTCitGRSCitPAPPPACitGLT [Cit-ME]”?
Answer: induction of T cells apoptosis (T cells): 18%; mean relative expression level of IL-17 mRNA (IL-17): significant reduction; amount of peptide sufficient to impair binding of specific ACPA to cit-collagen (anti cit-collagen ACPA): 10 to 200 µg; expression of IFN-γ (IFN-γ): down-regulated; amount of peptide sufficient to impair binding of specific ACPA to cit-filaggrin [1]: 10 to 200 µg; amount of peptide sufficient to impair binding of specific ACPA to cit-β-fibrinogen [2]: 10 to 200 µg; mean apoptotic rate (Annexin-V positive cells) [3]: 19.5±1.8%; increase in mean percentage of CD4+CD25+Foxp3+ T cells (CD4+CD25+Foxp3+ T cells): 12%; histological inflammatory score (AIA rats): 0.54±0.2; expression of TGF-β (TGF-β): up-regulated
